Here are results for 13 molecules from US20090221539A1, “METHOD OF DETECTING AND REDUCING BOAR TAINT USING NUCLEAR RECEPTORS” (UNIVERSITY OF GUELPH, priority 2005, published 2009).

Like-named read-outs stand apart in the source and are kept apart here.

Data set [1] concerns pgCAR. The experiment in a line: Dual luciferase reporter assay in HepG2 cells transiently transfected with pgCAR. Type of data set: cell-based, pig. The following applies: for reporter gene expression (fold-change relative to DMSO vehicle): pgCAR, CYP2B6 response element firefly luciferase, hormones at 10 μM. (Reporter assays use an easily measured gene product as a stand-in for the process of interest.)
Procedure: Dual Luciferase Reporter Assay: Pig, human ? mouse ? receptors were tested in a transient transfection assay against a panel of hormones and xenobiotics. Hormones and TCPOBOP were tested at 10 μM with the exception of CITCO at 1 μM. The effects of ligands are expressed as fold-change relative to vehicle (dimethylsulfoxide 1:2000) control for each receptor.
The dual luciferase reporter assay (Promega) was used as a screening tool to identify ligands (hormone and xenobiotic compounds) that regulate the nuclear receptor CAR. The dual luciferase assay consists of 3 plasmids. A pgCAR or hCAR or mCAR expression plasmid containing the full length wild type isoform is used together with a reporter construct, consisting of the CAR response gene promoter element from CYP2B6 regulating the expression of the firefly luciferase gene. […] The Promega Dual-Luciferase Reporter Assay System (Cat#E11960) was used to determine the hormones and xenobiotics that modulate the CAR responsive genes by measuring the amount light produced by the firefly luciferase gene construct.
The dual luciferase assay method uses HepG2 cells (that express RXR) plated at 50% confluence onto 96 well cell culture plates. The cells are transiently transfected after 1 day with pgCAR expression plasmid, reporter plasmid (containing the CAR response element) and the internal control plasmid, which are pooled treatments to ensure all samples receive the same amount of plasmids. On day two, control or ligand supplemented media are added to cells (ligands from FIG. 4 at 10 ug/ml in DMSO) for a total of n=15 for each ligand. On day four, the media is removed and cells are washed with PBS to remove detached cells and remaining media. The cell monolayer is then treated with Passive lysis buffer and the cell lysate is then transferred to a test tube for analysis. Luminometer readings are made on a Berthold Detection systems Sirius single tube luminometer with dual injectors. The test tube is loaded into the measurement chamber and the LARII luciferase reagent is injected into the cell lysate and a 10 second firefly luciferase relative light unit (RLU) measurement is recorded. The Stop & Glo reagent is then injected into the same tube and the Renella luciferase RLU is measured. The ratio of reporter to control luminescence is used to normalize transfection efficiencies between plates; the normalized values are then statistically analyzed by t-tests to determine how efficiently CAR activates the firefly luciferase reporter gene in response to ligand treatment.

In the next data set the test system is UGT2B. The following applies: boar hepatocytes, ligand 8 or 10 hours, vs DMSO.
For data set [2], the system named is SULT2A1. The following applies: boar hepatocytes, ligand 8 or 10 hours, vs DMSO.
Source text: (§5) Boar hepatocytes treated with ligands for 8-10 hrs prior to RNA isolation and real time PCR analysis. B-actin was used as the housekeeping gene and DMSO (no hormone treatment) was used as the calibrator. For CYP2A6, CYP2E1, SULT1A1 and UGT2B the primer inefficiencies should not affect the resultant fold changes in this experiment since all hepatocyte treatments come from a single boar and analysis is compared to the no hormone DMSO control. This analysis should be valid since the calibrator is from the same pool of cells.
(§6) Primary boar hepatocytes were treated with seven different CAR ligands identified in objective 2 and 5, with DMSO used as the vehicle control. Primary cells were plated on 60 mm dishes and treated with ligand. The treatments were incubated for 8 or 10 hours and the RNA was extracted from cells in each treatment. Real Time PCR primers were designed for seven genes of interest CYP2A6, CYP2E1, 3β-HSD, 3α-HSD, SULT2A1, SULT1A1, UGT2B, CYP2B6 and pgCAR, with B-actin used as the housekeeping gene for ΔΔCT analysis.
The subject of another data set is 3β-HSD. The following applies: boar hepatocytes, ligand 8 or 10 hours, vs DMSO.
For data set [3], the system named is SULT2A1. Description: SULT2A1 activity in primary porcine Leydig cells after treatment with nuclear receptor ligands ([3H]DHEA to DHEAS conversion). The data set is classed as cell-based, pig. The following applies: primary Leydig cells of mature Yorkshire boars, 24 hours; CITCO 1 μM, TCPOBOP 250 nM, phenobarbital 2 mM, phenytoin 50 μM, rifampicin 10 μM, PCN 10 μM, dexamethasone 0.1 μM, lithocolic acid 100 μM; vs control. On the procedure:
FIG. 1: Effect of nuclear receptor ligands on SULT2A1 activity in porcine Leydig cells. Primary porcine Leydig cells were isolated from mature Yorkshire boars and the SULT2A1 activity was determined. Leydig cells were cultured in the presence of; CITCO (1 μM), TCPOBOP (250 nM), Phenobarbital (2 mM), Phenytoin (50 μM), Rifampicin (10 μM), PCN (10 μM), Dexamethasone (0.1 μM), Cholic Acid (100 μM), and Lithocolic Acid (100 μM) for 24 hours. Treatments are grouped according to the nuclear receptor affected: constitutive androstane receptor (CAR), pregnane X receptor (PXR), glucocorticoid receptor (GR) and farnesoid X receptor (FXR). Values are presented as means±SE of 3 independent experiments with significant differences indicated (*P<0.05).
Mature Yorkshire boars of 175±6 days obtained from the Arkell Swine Research Station at the University of Guelph, Guelph, ON were used for the isolation of Leydig cells. After slaughter, the testes were immediately removed and transported to the laboratory within five minutes. Testicular tissue was sliced into pieces of 1 cm^2×2-3 mm thickness and 100 g of tissue was incubated for 20 minutes in a shaking water bath at 37° C. with 1 mg/ml collagenase (type 1A), 50 μg/ml DNase and 50 μg/ml trypsin inhibitor in 250 ml of TC 199 Media containing 1 g/L bovine serum albumin and 0.1 g/L L-glutamine. Preparations of purified Leydig cells were obtained by layering the collagenase—dispersed testicular cells onto discontinuous Percoll gradients supplemented with HBSS. The preparations were then centrifuged at 1500×g for 15 minutes at 4° C. and the cells present at the 40-60% interface were collected as outlined previously (Raeside & Renaud 1983). Cell viability was determined by trypan blue exclusion. The typical viability of Leydig cells after this procedure was greater than 90%.
To further understand the molecular mechanisms that control SULT2A1 gene transcription, various nuclear receptor ligands were evaluated for their ability to induce SULT2A1 activity in Leydig cells. Aliquots of re-suspended Leydig cells (1×10^6 cells/ml) in TC 199 Media mixture were plated in 24 well plates. The Leydig cells were then treated with various nuclear receptor ligands as outlined in the figure legends in less than 0.5% DMSO vehicle and incubated at 37° C. in 95% air and 5% CO2 for 24 hours.
After the 24 h incubation period, the media was aspirated and approximately 10,000 cpm of [^3H] […] The cells were incubated for 4 h and the media was removed and immediately extracted by Sep-Pak C18 solid-phase chromatography, as described above. Sulfotransferase activity was assayed by measuring the conversion of [^3H] […] DHEAS (conjugate) fractions by liquid scintillation counting. […]

Another data set deals with 3MI metabolism. The experiment in a line: 3MI metabolism assay: production of HMOI and 3MOI in primary pig hepatocytes after inducer treatment. Type of data set: cell-based. The following applies: for 3MI metabolism: CITCO 1.0 μM. How it is done:
(§1) Each data point represents results obtained from 3 separate experiments run in triplicate.
(§2) Hepatocytes were prepared by a modification of a collagenase perfusion method described previously (Sinclair et al., 2005). Briefly, one hepatic lobe was immediately catheterized by selecting the largest vessel at the cut end. Blood was then flushed from the liver by perfusion with 25 mL/min of medium containing 10 mM hydroxyethyl piperazine ethane (HEPES), 1 mM EGTA and HBSS (pH 7.4) delivered at 37° C. The lobe was then perfused for 5 minutes with the same medium without EGTA and then with William's E Media (pH 7.4) containing 10 mM HEPES and 0.7 mg/mL collagenase type 1 for 10 to 25 minutes until the hepatocytes appeared to be fully dissociated.
(§3) All remaining experimental procedures were carried out under sterile conditions. The lobe was gently minced with a scalpel to disassociate cells in attachment medium containing 10 mM HEPES, 10% (v/v) fetal bovine serum, 1% (v/v) penicillin-streptomycin and 50 Units/L insulin in William's E media (pH 7.4), at 4° C. Cells were filtered through gauze and centrifuged at 15×g for 3 minutes. The cell pellet was washed in attachment media and cell viability was determined by trypan blue exclusion. […] Hepatocytes were then plated on Primaria™ 60 mm tissue culture dishes (VWR International Ltd., Mississauga, ON) at a density of 2.25×10^6 cells in 3.0 mL attachment media, and kept in a incubator at 37° C. supplied with 95% air and 5% CO2. After 4 hours to allow for attachment of the cells, the medium was replaced with serum-free medium that contained 10 mM HEPES, 10 mM pyruvate, 0.35 mM proline, 1% (v/v) penicillin-streptomycin and 50 Units/L insulin in William's E media (pH 7.4) with treatments. For inducer experiments, hepatocytes were treated for 19 hours prior to the determination of P450 activities and 3MI metabolism.
To measure 3MI metabolism in primary cultured hepatocytes, cells were incubated with 500 μM 3MI for 6 hours, after which an equal volume of acetonitrile was added to stop the reaction. The production of metabolites was then determined by HPLC analysis as previously described (Terner et al., in press). Formation of metabolites was determined by interpolation of standard curves made from authentic standards HMOI and 3MOI run in duplicate.

Data set [4] concerns pgCAR. Description: Dual luciferase reporter assay in primary boar hepatocytes transfected with pgCAR. Type of data set: cell-based, pig. The following applies: primary boar hepatocytes with exogenous pgCAR expression plasmid. On the procedure:
FIG. 11. Dose response analysis of CITCO ligand treatment in primary boar hepatocytes. Unlike HepG2 cells, primary hepatocytes have very low basal luciferase expression allowing for the detection of significant fold changes above no hormone control at lower doses.
FIG. 12. Dose response analysis of Phenytoin ligand treatment in primary boar hepatocytes.
FIG. 13. Dual luciferase assay of selected ligand in boar hepatocytes. Selected activators and repressors of pgCAR in HepG2 cells were tested in boar hepatocytes. […] Only reporter gene activations and not repressions are detectable in this cell model.
Transfection experiments using the HepG2 cell line identified compounds that were able to alter pgCAR gene regulation. Experiments performed on primary mouse and human hepatocytes indicate that gene regulation has additional levels of complexity, and CAR is not constitutively active in vivo. This experiment uses a similar methodology as objective 2 except primary boar hepatocytes were used as the cell line. Hepatocytes were transfected with a reporter construct containing the CAR responsive element, an internal control Renilla luciferase construct, and pgCAR or an empty vector as control. Control experiments without pgCAR were conducted to determine if endogenous pgCAR in the hepatocytes could activate the reporter construct. […] The cascade of events leading to gene activation remains unclear.

Another data set concerns CYP2A6. The experiment in a line: CYP2A6 activity (coumarin 7-hydroxylase, COH assay) in primary pig hepatocytes after inducer treatment. The following applies: for CYP2A6 activity: isoproterenol 500 μM, CITCO 1.0 μM. On the procedure:
as §1, §2, §3
(§4) To determine the rate of p-nitrophenol (PNP) hydroxylase activity and coumarin 7-hydroxylase (COH) activity, hepatocytes were incubated with 500 μM PNP or 100 μM coumarin according to the procedures previously described (Terner et al, in press). Assays were validated to be linear with time and proportional to number of cells. Production of metabolites was determined in duplicate by interpolation of standard curves made from authentic standards p-nitrocatechol and 7-hydroxycoumarin.

Another data set concerns CYP2E1. Description: CYP2E1 activity (PNP hydroxylase assay) in primary pig hepatocytes after inducer treatment. The following applies: isoproterenol 500 μM, hormones and rifampicin 10 μM, CITCO 1.0 μM. On the procedure:
as §1, §2, §3, §4

Setting [5] is: 3-week old male pig hepatocytes, isoproterenol 500 μM, hormones and rifampicin 10 μM, given as increase, FIG. 2 values as percent of control.
The mark [6] stands for this setting: 3-week old male pig hepatocytes, given as increase, FIG. 2 values as percent of control.
[7] abbreviates: 3-week old male pig hepatocytes, hormones 10 μM, given as increase, FIG. 2 values as percent of control.
The mark [8] stands for this setting: adult male hepatocytes, hormones and rifampicin 10 μM.
Where [9] appears, read: adult male hepatocytes, isoproterenol 500 μM, estrone 10 μM, given as increase, FIG. 2 values as percent of control.

Source text for 3β-HSD: as §5, §6
Source text for UGT2B: as §5, §6

Regarding `C[C@@]12C=CC[C@H]1[C@@H]1CC=C3C[C@@H](O)CC[C@]3(C)[C@H]1CC2` [5,16-androstadien-3β-ol], the “reporter gene expression (fold-change relative to DMSO vehicle)” value in the data set with pgCAR [1] is “significant repressions”.

As to `C[C@]12CCC(=O)C[C@@H]1CC[C@@H]1[C@@H]2CC[C@]2(C)[C@@H](O)CC[C@@H]12` [5α-DHT, 5α dihydrotestosterone], the UGT2B gene expression entry in the data set on UGT2B was “significantly activated”. Further, the SULT2A1 gene expression entry with SULT2A1 [2] is “significantly activated”. Further, the 3β-HSD gene expression entry in the data set on 3β-HSD is “significantly activated”.

With `C[C@]12CC[C@H](O)C[C@@H]1CC[C@@H]1[C@@H]2CC[C@]2(C)C=CC[C@@H]12` [5α-androsten-3β-ol], the “reporter gene expression (fold-change relative to DMSO vehicle)” value in the data set on pgCAR [1] is “significant repressions”.

In the case of `Clc1ccc(-c2nc3sccn3c2C=NOCc2ccc(Cl)c(Cl)c2)cc1` [CITCO, 6-(4-chlorophenyl)imidazo[2,1-b][1,3]thiazole-5-carbaldehyde O-(3,4-dichlorobenzyl)oxime], in the data set with SULT2A1 [3], the SULT2A1 activity entry was “did not affect”. For the same molecule, the 3MI metabolism entry was “did not increase CYP2E1 or CYP2A6 activity, or affect 3MI metabolism” in the data set on 3MI metabolism (3-week old male hepatocytes) and “did not increase CYP2E1 or CYP2A6 activity, or affect 3MI metabolism” with 3MI metabolism (adult male hepatocytes, rifampicin 10 μM). In the data set on pgCAR [1] (dose response 0.01-10.0), the “dose at which CITCO significantly activates the pgCAR receptor” value was not below 0.5 µM. The “reporter gene expression (fold-change relative to DMSO vehicle)” value with pgCAR [1] is given as “significant activation”. Also, the “activation of the luciferase reporter construct” value in the data set with pgCAR [4] is on record as “activated the reporter construct”.

Consider `CC(=O)[C@H]1[C@H](C#N)C[C@H]2[C@@H]3CC=C4C[C@@H](O)CC[C@]4(C)[C@H]3CC[C@@]21C` [PCN, Pregnenolone 16α-carbonitrile], for which the SULT2A1 activity entry in the data set with SULT2A1 [3] was “only rifampicin resulted in a significant increase”.

On to `CO[C@H]1/C=C/O[C@@]2(C)Oc3c(C)c(O)c4c(O)c(c(/C=N/N5CCN(C)CC5)c(O)c4c3C2=O)NC(=O)/C(C)=C\C=C\[C@H](C)[C@H](O)[C@@H](C)[C@@H](O)[C@@H](C)[C@H](OC(C)=O)[C@@H]1C` [Rifampicin], for which the “decrease in CYP2A6 activity” value in the data set with CYP2A6 (male, pig, hepatocytes, 19 h, 10 μM, pH 7.4) turned out to be 43±7%. In addition, in the data set on 3MI metabolism (setting [5]), the “production of 3MOI” value worked out at 128±10% and the “production of the 3MI metabolite HMOI” value turned out to be 151±14%.

In the case of `Clc1cnc(Oc2ccc(Oc3ncc(Cl)cc3Cl)cc2)c(Cl)c1` [TCBOPOP, 1,4-bis-[2-(3,5-dichloropyridyl-oxy)]benzene; 3,3′5,5′-tetrachloro-1,4-bis(pyridyl-oxy)benzene], the SULT2A1 activity entry in the data set on SULT2A1 [3] is listed as “did not affect”.

Consider `C[C@@]12CCC[C@H]1[C@@H]1CC[C@H]3C[C@@H](O)CC[C@]3(C)[C@H]1CC2` [androstanol], for which the CYP2E1 activity entry in the data set with CYP2E1 (setting [6]) and with CYP2E1 (adult male hepatocytes) was “did not alter” throughout. The CYP2A6 activity entry in the data set on CYP2A6 (setting [7]) and in the data set on CYP2A6 (setting [8]) was “did not alter” in each case. In the data set on 3MI metabolism (setting [5]), the “production of 3MOI” value was “did not affect”. Moreover, the “production of the 3MI metabolite HMOI” value in the data set with 3MI metabolism (setting [5]) is recorded as “did not affect”.

With `C[C@]12CC[C@@H](O)C[C@@H]1CC[C@@H]1[C@@H]2CC[C@]2(C)C=CC[C@@H]12` [androstenol], in the data set on 3MI metabolism (setting [5]), the “production of 3MOI” value was “did not affect” and the “production of the 3MI metabolite HMOI” value is “did not affect”.

On to `C[C@]12CC[C@@H]3c4ccc(O)cc4CC[C@H]3[C@@H]1CCC2=O` [estrone], for which, in the data set on 3MI metabolism (setting [9]), the HMOI production is recorded as 142±12%.

As to `CC(C)NCC(O)c1ccc(O)c(O)c1` (stereo not shown) [isoproterenol], in the data set on 3MI metabolism (setting [5]), the “production of 3MOI” value is recorded as “unaffected” and the “production of the 3MI metabolite HMOI” value was 150±13%. Further, the 3MOI production entry with 3MI metabolism (adult male hepatocytes, isoproterenol 500 μM, estrone 10 μM) was “did not alter”. In the data set on 3MI metabolism (setting [9]), this molecule returned an HMOI production of 139±12%.

As for `O=C1NC(=O)C(c2ccccc2)(c2ccccc2)N1` [phenytoin], the SULT2A1 activity result in the data set with SULT2A1 [3] is “significant increase”. Moreover, the “activation of the luciferase reporter construct” value in the data set with pgCAR [4] was “activated the reporter construct”.

`C[C@]12CC[C@H]3[C@@H](CCC4=CC(=O)CC[C@@]43C)[C@@H]1CC[C@@H]2O` [testosterone]: the CYP2E1 activity result in the data set with CYP2E1 (setting [6]) and in the data set on CYP2E1 (adult male hepatocytes) was “did not alter” throughout. For the same molecule, the CYP2A6 activity entry in the data set on CYP2A6 (setting [7]) and in the data set with CYP2A6 (setting [8]) was “did not alter” in each case. Also, the “production of 3MOI” value in the data set with 3MI metabolism is “did not affect”. Further, the “production of the 3MI metabolite HMOI” value in the data set on 3MI metabolism was “did not affect”.
